# Source: PubChem BioAssay AID1963427 (Molecular Pharmacology Branch, DTP, NCI, 2024)
# Several values for one entry are separate records, joined by “and”; a condition that tells them apart may be missing. Identical values can stand only once.
# System: 317291-083-R-J1-PDC complex spheroid growth
# Test: Anticancer human tumor 317291-083-R-J1-PDC patient-derived soft tissue sarcoma cell line growth inhibition [Asc]
# Conditions: for viability, T/C: stronger effect = lower value
# Method in brief: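 Complex solid-tumor spheroids incorporating human endothelial and mesenchymal stem cells received single agents or combinations over half-log dilution ranges anchored to clinical Cmax.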
# 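Note: compound exposure lasted seven days after spheroids formed for three days.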
# 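Throughout, for viability, T/C: 100% = DMSO vehicle control wells.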
smiles,measurement,setting,value
C#Cc1c(F)ccc2cc(O)cc(-c3ncc4c(N5CC6CCC(C5)N6)nc(OCC56CCCN5CC(F)C6)nc4c3F)c12 (stereo unspecified) + CNC(C)C(=O)NC1CN(S(=O)(=O)c2cccc(S(=O)(=O)N3CCC4CCC(C(=O)NC(c5ccccc5)c5ccccc5)N4C(=O)C(NC(=O)C(C)NC)C3)c2)CCC2CCC(C(=O)NC(c3ccccc3)c3ccccc3)N2C1=O,IC50,"curve of first compound, second compound 0.00316 µM",6.74 µM
same,IC50,"curve of first compound, second compound 0.01 µM",8.01 µM
same,IC50,"curve of first compound, second compound 0.0316 µM",4.12 µM
same,IC50,"curve of first compound, second compound 0.1 µM",3.61 µM
same,IC50,"curve of first compound, second compound 0.316 µM",< 0.0316 µM
same,IC50,"curve of first compound, second compound 1 µM",< 0.0316 µM
same,"viability, T/C","second compound 0.00316 µM, first compound 0.0316 µM",76.3%
same,"viability, T/C","second compound 0.00316 µM, first compound 0.1 µM",75.7%
same,"viability, T/C","second compound 0.00316 µM, first compound 0.316 µM",72.3%
same,"viability, T/C","second compound 0.00316 µM, first compound 1 µM",84.3%
same,"viability, T/C","second compound 0.00316 µM, first compound 3.16 µM",87%
same,"viability, T/C","second compound 0.00316 µM, first compound 10 µM",34.8%
same,"viability, T/C","second compound 0.01 µM, first compound 0.0316 µM",84.2%
same,"viability, T/C","second compound 0.01 µM, first compound 0.1 µM",71.6%
same,"viability, T/C","second compound 0.01 µM, first compound 0.316 µM",57.8%
same,"viability, T/C","second compound 0.01 µM, first compound 1 µM",81.4%
same,"viability, T/C","second compound 0.01 µM, first compound 3.16 µM",76%
same,"viability, T/C","second compound 0.01 µM, first compound 10 µM",44.3%
same,"viability, T/C","second compound 0.0316 µM, first compound 0.0316 µM",67.5%
same,"viability, T/C","second compound 0.0316 µM, first compound 0.1 µM",66.6%
same,"viability, T/C","second compound 0.0316 µM, first compound 0.316 µM",59.3%
same,"viability, T/C","second compound 0.0316 µM, first compound 1 µM",63.9%
same,"viability, T/C","second compound 0.0316 µM, first compound 3.16 µM",58.1%
same,"viability, T/C","second compound 0.0316 µM, first compound 10 µM",23.5%
same,"viability, T/C","second compound 0.1 µM, first compound 0.0316 µM",54.9%
same,"viability, T/C","second compound 0.1 µM, first compound 0.1 µM",55%
same,"viability, T/C","second compound 0.1 µM, first compound 0.316 µM",53.3%
same,"viability, T/C","second compound 0.1 µM, first compound 1 µM",50.8%
same,"viability, T/C","second compound 0.1 µM, first compound 3.16 µM",59%
same,"viability, T/C","second compound 0.1 µM, first compound 10 µM",15.1%
same,"viability, T/C","second compound 0.316 µM, first compound 0.0316 µM",42.9%
same,"viability, T/C","second compound 0.316 µM, first compound 0.1 µM",46.2%
same,"viability, T/C","second compound 0.316 µM, first compound 0.316 µM",44.3%
same,"viability, T/C","second compound 0.316 µM, first compound 1 µM",31.9%
same,"viability, T/C","second compound 0.316 µM, first compound 3.16 µM",43.6%
same,"viability, T/C","second compound 0.316 µM, first compound 10 µM",10.6%
same,"viability, T/C","second compound 1 µM, first compound 0.0316 µM",31.1%
same,"viability, T/C","second compound 1 µM, first compound 0.1 µM",29%
same,"viability, T/C","second compound 1 µM, first compound 0.316 µM",29.4%
same,"viability, T/C","second compound 1 µM, first compound 1 µM",24.4%
same,"viability, T/C","second compound 1 µM, first compound 3.16 µM",26.2%
same,"viability, T/C","second compound 1 µM, first compound 10 µM",8.59%
C#Cc1c(F)ccc2cc(O)cc(-c3ncc4c(N5CC6CCC(C5)N6)nc(OCC56CCCN5CC(F)C6)nc4c3F)c12 (stereo unspecified),"viability, T/C",compound 0.0316 µM,86.9% and 91% and 105%
same,"viability, T/C",compound 0.1 µM,84.9% and 99.4% and 85.2%
same,"viability, T/C",compound 0.316 µM,87.6% and 108% and 105%
same,"viability, T/C",compound 1 µM,97.5% and 103% and 102%
same,"viability, T/C",compound 3.16 µM,95.8% and 90.8% and 94.6%
same,"viability, T/C",compound 10 µM,56.1% and 72.7% and 85.2%
same,IC50,curve of compound,> 10 µM
C#Cc1c(F)ccc2cc(O)cc(-c3ncc4c(N5CC6CCC(C5)N6)nc(OCC56CCCN5CC(F)C6)nc4c3F)c12 (stereo unspecified) + CCN1C(C(=O)NC23CCC(C(=O)O)(CC2)CC3)C(c2cccc(Cl)c2F)C2(C(=O)Nc3cc(Cl)ccc32)C12CCCCC2,IC50,"curve of first compound, second compound 0.00949 µM",> 10 µM
same,IC50,"curve of first compound, second compound 0.03 µM",> 10 µM
same,IC50,"curve of first compound, second compound 0.0949 µM",> 10 µM
same,IC50,"curve of first compound, second compound 0.3 µM",> 10 µM
same,IC50,"curve of first compound, second compound 0.949 µM",> 10 µM
same,IC50,"curve of first compound, second compound 3 µM",> 10 µM
same,"viability, T/C","second compound 0.00949 µM, first compound 0.0316 µM",129%
same,"viability, T/C","second compound 0.00949 µM, first compound 0.1 µM",78.8%
same,"viability, T/C","second compound 0.00949 µM, first compound 0.316 µM",125%
same,"viability, T/C","second compound 0.00949 µM, first compound 1 µM",153%
same,"viability, T/C","second compound 0.00949 µM, first compound 3.16 µM",113%
same,"viability, T/C","second compound 0.00949 µM, first compound 10 µM",66.1%
same,"viability, T/C","second compound 0.03 µM, first compound 0.0316 µM",106%
same,"viability, T/C","second compound 0.03 µM, first compound 0.1 µM",98.3%
same,"viability, T/C","second compound 0.03 µM, first compound 0.316 µM",106%
same,"viability, T/C","second compound 0.03 µM, first compound 1 µM",112%
same,"viability, T/C","second compound 0.03 µM, first compound 3.16 µM",78.2%
same,"viability, T/C","second compound 0.03 µM, first compound 10 µM",80.2%
same,"viability, T/C","second compound 0.0949 µM, first compound 0.0316 µM",108%
same,"viability, T/C","second compound 0.0949 µM, first compound 0.1 µM",101%
same,"viability, T/C","second compound 0.0949 µM, first compound 0.316 µM",104%
same,"viability, T/C","second compound 0.0949 µM, first compound 1 µM",99.6%
same,"viability, T/C","second compound 0.0949 µM, first compound 3.16 µM",118%
same,"viability, T/C","second compound 0.0949 µM, first compound 10 µM",79.4%
same,"viability, T/C","second compound 0.3 µM, first compound 0.0316 µM",101%
same,"viability, T/C","second compound 0.3 µM, first compound 0.1 µM",97.6%
same,"viability, T/C","second compound 0.3 µM, first compound 0.316 µM",120%
same,"viability, T/C","second compound 0.3 µM, first compound 1 µM",126%
same,"viability, T/C","second compound 0.3 µM, first compound 3.16 µM",101%
same,"viability, T/C","second compound 0.3 µM, first compound 10 µM",69.9%
same,"viability, T/C","second compound 0.949 µM, first compound 0.0316 µM",104%
same,"viability, T/C","second compound 0.949 µM, first compound 0.1 µM",108%
same,"viability, T/C","second compound 0.949 µM, first compound 0.316 µM",90.2%
same,"viability, T/C","second compound 0.949 µM, first compound 1 µM",98.7%
same,"viability, T/C","second compound 0.949 µM, first compound 3.16 µM",100%
same,"viability, T/C","second compound 0.949 µM, first compound 10 µM",78.4%
same,"viability, T/C","second compound 3 µM, first compound 0.0316 µM",72.3%
same,"viability, T/C","second compound 3 µM, first compound 0.1 µM",74.1%
same,"viability, T/C","second compound 3 µM, first compound 0.316 µM",77.2%
same,"viability, T/C","second compound 3 µM, first compound 1 µM",86.6%
same,"viability, T/C","second compound 3 µM, first compound 3.16 µM",69.9%
same,"viability, T/C","second compound 3 µM, first compound 10 µM",53.6%
